Assay results from PubChem BioAssay (NCI).
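Dose response: 5 concentrations. Exposure: 48 h. Format: 96-well plates. Endpoint: linear interpolation; highest concentration if not reached. GI50 marks 50% less growth. TGI denotes the concentration required for complete inhibition of growth.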

Assays:
Assay in all cases: growth of human tumour cells (NCI), 48 h
786-0 renal = system: 786-0 renal
A498 renal = system: A498 renal
A549 NSCLC = system: A549 NSCLC
ACHN renal = system: ACHN renal
BT-549 breast = system: BT-549 breast
CAKI-1 renal = system: CAKI-1 renal
CCRF-CEM leukemia = system: CCRF-CEM leukemia
COLO 205 colon = system: COLO 205 colon
DU-145 prostate = system: DU-145 prostate
EKVX NSCLC = system: EKVX NSCLC
HCC-2998 colon = system: HCC-2998 colon
HCT-116 colon = system: HCT-116 colon
HCT-15 colon = system: HCT-15 colon
HL-60(TB) leukemia = system: HL-60(TB) leukemia
HOP-62 NSCLC = system: HOP-62 NSCLC
HOP-92 NSCLC = system: HOP-92 NSCLC
HS 578T breast = system: HS 578T breast
HT29 colon = system: HT29 colon
IGROV1 ovarian = system: IGROV1 ovarian
K-562 leukemia = system: K-562 leukemia
KM12 colon = system: KM12 colon
LOX IMVI melanoma = system: LOX IMVI melanoma
M14 melanoma = system: M14 melanoma
MALME-3M melanoma = system: MALME-3M melanoma
MCF7 breast = system: MCF7 breast
MDA-MB-231 breast = system: MDA-MB-231 breast
MDA-MB-435 = system: MDA-MB-435
MOLT-4 leukemia = system: MOLT-4 leukemia
NCI-H226 lung = system: NCI-H226 lung
NCI-H23 lung = system: NCI-H23 lung
NCI-H460 lung = system: NCI-H460 lung
NCI-H522 lung = system: NCI-H522 lung
NCI/ADR-RES ovarian = system: NCI/ADR-RES ovarian
OVCAR-3 ovarian = system: OVCAR-3 ovarian
OVCAR-4 ovarian = system: OVCAR-4 ovarian
OVCAR-5 ovarian = system: OVCAR-5 ovarian
OVCAR-8 ovarian = system: OVCAR-8 ovarian
PC-3 prostate = system: PC-3 prostate
RPMI-8226 leukemia = system: RPMI-8226 leukemia
RXF 393 renal = system: RXF 393 renal
SF-268 CNS = system: SF-268 CNS
SF-295 CNS = system: SF-295 CNS
SF-539 CNS = system: SF-539 CNS
SK-MEL-2 melanoma = system: SK-MEL-2 melanoma
SK-MEL-28 melanoma = system: SK-MEL-28 melanoma
SK-MEL-5 melanoma = system: SK-MEL-5 melanoma
SK-OV-3 ovarian = system: SK-OV-3 ovarian
SN12C renal = system: SN12C renal
SNB-19 CNS = system: SNB-19 CNS
SNB-75 CNS = system: SNB-75 CNS
SR leukemia = system: SR leukemia
SW-620 colon = system: SW-620 colon
T-47D breast = system: T-47D breast
TK-10 renal = system: TK-10 renal
U251 CNS = system: U251 CNS
UACC-257 melanoma = system: UACC-257 melanoma
UACC-62 melanoma = system: UACC-62 melanoma
UO-31 renal = system: UO-31 renal

COc1ccc2c(c1)C(=O)c1c-2n(CCCNCCO)c(=O)c2ccccc12
GI50 (786-0 renal): 67.8 nM | TGI (786-0 renal): 568 nM | GI50 (A498 renal): 80.7 nM | TGI (A498 renal): 520 nM | GI50 (A549 NSCLC): 62.6 nM | TGI (A549 NSCLC): 310 nM | GI50 (ACHN renal): 39.7 nM | TGI (ACHN renal): 240 nM | GI50 (BT-549 breast): 127 nM | TGI (BT-549 breast): 672 nM | GI50 (CAKI-1 renal): 107 nM | TGI (CAKI-1 renal): 659 nM | GI50 (CCRF-CEM leukemia): 22.7 nM | TGI (CCRF-CEM leukemia): 1050 nM | GI50 (COLO 205 colon): 74.6 nM | TGI (COLO 205 colon): 1650 nM | GI50 (DU-145 prostate): 46.9 nM | TGI (DU-145 prostate): 331 nM | GI50 (EKVX NSCLC): 349 nM | TGI (EKVX NSCLC): 1500 nM | GI50 (HCC-2998 colon): 109 nM | TGI (HCC-2998 colon): 479 nM | GI50 (HCT-116 colon): 79.9 nM | TGI (HCT-116 colon): 534 nM | GI50 (HCT-15 colon): 154 nM | TGI (HCT-15 colon): 1180 nM | GI50 (HL-60(TB) leukemia): 169 nM | TGI (HL-60(TB) leukemia): 1690 nM | GI50 (HOP-62 NSCLC): 57.5 nM | TGI (HOP-62 NSCLC): 462 nM | GI50 (HOP-92 NSCLC): 87 nM | TGI (HOP-92 NSCLC): 531 nM | GI50 (HS 578T breast): 262 nM | TGI (HS 578T breast): 2240 nM | GI50 (HT29 colon): 76.4 nM | TGI (HT29 colon): 1760 nM | GI50 (IGROV1 ovarian): 150 nM | TGI (IGROV1 ovarian): 2330 nM | GI50 (K-562 leukemia): 121 nM | GI50 (KM12 colon): 200 nM | TGI (KM12 colon): 1240 nM | GI50 (LOX IMVI melanoma): 47.3 nM | TGI (LOX IMVI melanoma): 224 nM | GI50 (M14 melanoma): 320 nM | TGI (M14 melanoma): 1480 nM | GI50 (MALME-3M melanoma): 178 nM | TGI (MALME-3M melanoma): 1240 nM | GI50 (MCF7 breast): < 11.5 nM | TGI (MCF7 breast): 434 nM | GI50 (MDA-MB-231 breast): 543 nM | TGI (MDA-MB-231 breast): 2330 nM | GI50 (MDA-MB-435): 322 nM | TGI (MDA-MB-435): 1620 nM | GI50 (MOLT-4 leukemia): < 18.2 nM | TGI (MOLT-4 leukemia): 5.28 µM | GI50 (NCI-H226 lung): 486 nM | TGI (NCI-H226 lung): 2310 nM | GI50 (NCI-H23 lung): 120 nM | TGI (NCI-H23 lung): 563 nM | TGI (NCI-H460 lung): 137 nM | GI50 (NCI-H522 lung): 17.4 nM | TGI (NCI-H522 lung): 95.5 nM | GI50 (NCI/ADR-RES ovarian): 807 nM | TGI (NCI/ADR-RES ovarian): 3.38 µM | GI50 (OVCAR-3 ovarian): 331 nM | TGI (OVCAR-3 ovarian): 1410 nM | GI50 (OVCAR-4 ovarian): 301 nM | TGI (OVCAR-4 ovarian): 2230 nM | GI50 (OVCAR-5 ovarian): 346 nM | TGI (OVCAR-5 ovarian): 1110 nM | GI50 (OVCAR-8 ovarian): 90.8 nM | TGI (OVCAR-8 ovarian): 1900 nM | GI50 (PC-3 prostate): 272 nM | TGI (PC-3 prostate): 2290 nM | GI50 (RPMI-8226 leukemia): 72.7 nM | TGI (RPMI-8226 leukemia): 594 nM | GI50 (RXF 393 renal): 963 nM | TGI (RXF 393 renal): 3.95 µM | GI50 (SF-268 CNS): 120 nM | TGI (SF-268 CNS): 1430 nM | GI50 (SF-295 CNS): 61.7 nM | TGI (SF-295 CNS): 425 nM | GI50 (SF-539 CNS): 76.4 nM | TGI (SF-539 CNS): 408 nM | GI50 (SK-MEL-2 melanoma): 734 nM | TGI (SK-MEL-2 melanoma): 2570 nM | GI50 (SK-MEL-28 melanoma): 897 nM | TGI (SK-MEL-28 melanoma): 2490 nM | GI50 (SK-MEL-5 melanoma): 63.4 nM | TGI (SK-MEL-5 melanoma): 202 nM | GI50 (SK-OV-3 ovarian): 218 nM | TGI (SK-OV-3 ovarian): 1420 nM | GI50 (SN12C renal): 118 nM | TGI (SN12C renal): 1420 nM | GI50 (SNB-19 CNS): 117 nM | TGI (SNB-19 CNS): 1060 nM | GI50 (SNB-75 CNS): 261 nM | TGI (SNB-75 CNS): 1250 nM | GI50 (SR leukemia): < 20.7 nM | TGI (SR leukemia): 1800 nM | GI50 (SW-620 colon): 53 nM | TGI (SW-620 colon): 1460 nM | GI50 (T-47D breast): 56 nM | TGI (T-47D breast): 1620 nM | GI50 (TK-10 renal): 316 nM | TGI (TK-10 renal): 3.03 µM | GI50 (U251 CNS): 82.1 nM | TGI (U251 CNS): 1170 nM | GI50 (UACC-257 melanoma): 541 nM | TGI (UACC-257 melanoma): 2130 nM | GI50 (UACC-62 melanoma): 312 nM | TGI (UACC-62 melanoma): 1850 nM | GI50 (UO-31 renal): 90.4 nM | TGI (UO-31 renal): 618 nM
